Converted amounts (≈) assume the structure as drawn. Where two headings read alike, the source gives them in different places.
Tests used:
Test in all cases: MIC, CLSI broth microdilution
Format in all cases: cell-based
[1] = system: A. baumannii AABA1065 (Fluoroquinolone-susceptible); conditions: for MIC: Acinetobacter baumannii
Outline: (§1)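 MICs were read after 20 hours at 35° C in ambient air, with a final inoculum of 5×10^5 CFU/mL from saline-suspended overnight colonies. Serial two-fold dilutions in Mueller Hinton Broth followed the CLSI reference method (M7-A7), with QC strains E. coli ATCC 25922, P. aeruginosa ATCC 27853 and S. aureus ATCC 29213.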

[2] = system: S. pneumoniae ASPN1027 (Fluoroquinolone-resistant); conditions: for MIC: Streptococcus pneumoniae
Outline: as §1

[3] = system: S. aureus ASAU002 (Fluoroquinolone-susceptible, ATCC33591 (MRSA)); conditions: Table 3
Outline: as §1

[4] = system: P. aeruginosa APAE002 (Fluoroquinolone susceptible); conditions: Table 3
Outline: as §1

[5] = system: S. pneumoniae ASPN1018 (Fluoroquinolone-resistant); conditions: Table 3
Outline: as §1

[6] = system: P. aeruginosa APAE001 (Fluoroquinolone-susceptible, ATCC27853); conditions: for MIC: Pseudomonas aeruginosa
Outline: as §1

[7] = system: E. coli AECO002 (Fluoroquinolone susceptible); conditions: Table 3
Outline: as §1

[8] = system: E. coli AECO001 (Fluoroquinolone susceptible, ATCC25922); conditions: for MIC: Escherichia coli
Outline: as §1

[9] = system: S. pneumoniae ASPN002 (Fluoroquinolone-susceptible, ATCC10813); conditions: Table 3
Outline: as §1

[10] = system: E. coli AECO066 (Fluoroquinolone-resistant); conditions: for MIC: Escherichia coli
Outline: as §1

[11] = system: S. pneumoniae ASPN001 (Fluoroquinolone-susceptible, ATCC49619); conditions: for MIC: Streptococcus pneumoniae
Outline: as §1

[12] = system: S. aureus ASAU001 (Fluoroquinolone-susceptible, ATCC29213); conditions: for MIC: Staphylococcus aureus
Outline: as §1

[13] = system: A. baumannii AABA1009 (Fluoroquinolone-resistant); conditions: for MIC AABA 1009: Table 2
Outline: as §1

[14] = system: S. aureus ASAU1033 (Fluoroquinolone-resistant); conditions: Table 3
Outline: as §1

[15] = system: A. baumannii AABA1020 (Fluoroquinolone-resistant); conditions: Table 3
Outline: as §1

[16] = system: S. aureus ASAU1031 (Fluoroquinolone-resistant); conditions: for MIC: Staphylococcus aureus
Outline: as §1

[17] = system: P. aeruginosa APAE054 (Fluoroquinolone-resistant); conditions: for MIC: Pseudomonas aeruginosa
Outline: as §1

[18] = system: E. coli AECO086 (Fluoroquinolone-resistant); conditions: Table 3
Outline: as §1

## C[C@H]1COc2c(N3CCN(C)CC3)c(F)cc3c(=O)c(C(=O)O)cn1c23 [Levofloxacin, reference compound]
[1]; Table 2, read-out: MIC AABA 1065
  MIC: ≤ 1 µg/mL
[1]; Table 3
  MIC: < 1 µg/mL
[2]; Table 2, read-out: MIC ASPN 1027
  MIC: > 8 µg/mL
[2]; Table 3
  MIC: > 8 µg/mL
[3]; Staphylococcus aureus
  MIC: < 1 µg/mL
[4]; Pseudomonas aeruginosa
  MIC: < 1 µg/mL
[5]; Streptococcus pneumoniae
  MIC: > 8 µg/mL
[6]; Table 2, read-out: MIC APAE 001
  MIC: 1 to 8 µg/mL (≈ 2.77 to 22.1 µM)
[6]; Table 3
  MIC: 1 to 2 µg/mL (≈ 2.77 to 5.53 µM)
[7]; Escherichia coli
  MIC: < 1 µg/mL
[8]; Table 2, 35° C., 20 hours, read-out: MIC AECO 001
  MIC: ≤ 1 µg/mL
[8]; Table 3
  MIC: < 1 µg/mL
[9]; Streptococcus pneumoniae
  MIC: 1 to 2 µg/mL (≈ 2.77 to 5.53 µM)
[10]; Table 2, read-out: MIC AECO 066
  MIC: > 8 µg/mL
[10]; Table 3
  MIC: > 8 µg/mL
[11]; Table 2, read-out: MIC ASPN 001
  MIC: 1 to 8 µg/mL (≈ 2.77 to 22.1 µM)
[11]; Table 3
  MIC: 1 to 2 µg/mL (≈ 2.77 to 5.53 µM)
[12]; Table 2, read-out: MIC ASAU 001
  MIC: ≤ 1 µg/mL
[12]; Table 3
  MIC: < 1 µg/mL
[13]; Acinetobacter baumannii, Table 2, read-out: MIC AABA 1009
  MIC: > 8 µg/mL
[14]; Staphylococcus aureus
  MIC: > 8 µg/mL
[15]; Acinetobacter baumannii
  MIC: > 8 µg/mL
[16]; Table 2, read-out: MIC ASAU 1031
  MIC: > 8 µg/mL
[16]; Table 3
  MIC: > 8 µg/mL
[17]; Table 2, read-out: MIC APAE 054
  MIC: > 8 µg/mL
[17]; Table 3
  MIC: > 8 µg/mL
[18]; Escherichia coli
  MIC: > 8 µg/mL

## NC1C[C@@H]2CC=Cc3c(c(F)cc4c(=O)c(C(=O)O)cn(C5CC5)c34)N2C1.O=C(O)C(F)(F)F (stereo partly drawn) [7E/50, (7aS,9)-9-Amino-4-cyclopropyl-12-fluoro-1-oxo-4,7,7a,8,9,10-hexahydro-1H-pyrrolo[1′,2′:1,7]-azepino[2,3-h]quinoline-2-carboxylic acid trifluoroacetate]
[1]; Table 2
  MIC AABA 1065: C (MIC's of greater than 8.0 μg/mL = C)
[1]; Table 3
  MIC AABA 1065: D (MIC's of greater than 8.0 μg/mL = D)
[2]; Table 2
  MIC ASPN 1027: B (MIC's of greater than 1.0 μg/mL to 8.0 μg/mL = B)
[2]; Table 3
  MIC ASPN 1027: C (MIC's of 2.0 μg/mL to 8.0 μg/mL = C)
[3]
  MIC ASAU002: C (MIC's of 2.0 μg/mL to 8.0 μg/mL = C)
[4]
  MIC APAE002: D (MIC's of greater than 8.0 μg/mL = D)
[5]
  MIC ASPN1018: C (MIC's of 2.0 μg/mL to 8.0 μg/mL = C)
[6]; Table 2
  MIC APAE 001: C (MIC's of greater than 8.0 μg/mL = C)
[6]; Table 3
  MIC APAE 001: D (MIC's of greater than 8.0 μg/mL = D)
[7]
  MIC AECO002: D (MIC's of greater than 8.0 μg/mL = D)
[8]; Table 2, 35° C., 20 hours
  MIC AECO 001: B (MIC's of greater than 1.0 μg/mL to 8.0 μg/mL = B)
[8]; Table 3
  MIC AECO 001: C (MIC's of 2.0 μg/mL to 8.0 μg/mL = C)
[9]
  MIC ASPN002: C (MIC's of 2.0 μg/mL to 8.0 μg/mL = C)
[10]; Table 2
  MIC AECO 066: C (MIC's of greater than 8.0 μg/mL = C)
[10]; Table 3
  MIC AECO 066: D (MIC's of greater than 8.0 μg/mL = D)
[11]; Table 2
  MIC ASPN 001: B (MIC's of greater than 1.0 μg/mL to 8.0 μg/mL = B)
[11]; Table 3
  MIC ASPN 001: C (MIC's of 2.0 μg/mL to 8.0 μg/mL = C)
[12]; Table 2
  MIC ASAU 001: C (MIC's of greater than 8.0 μg/mL = C)
[12]; Table 3
  MIC ASAU 001: D (MIC's of greater than 8.0 μg/mL = D)
[13]
  MIC AABA 1009: C (MIC's of greater than 8.0 μg/mL = C)
[14]
  MIC ASAU1033: D (MIC's of greater than 8.0 μg/mL = D)
[15]
  MIC AABA1020: D (MIC's of greater than 8.0 μg/mL = D)
[16]; Table 2
  MIC ASAU 1031: C (MIC's of greater than 8.0 μg/mL = C)
[16]; Table 3
  MIC ASAU 1031: D (MIC's of greater than 8.0 μg/mL = D)
[17]; Table 2
  MIC APAE 054: C (MIC's of greater than 8.0 μg/mL = C)
[17]; Table 3
  MIC APAE 054: D (MIC's of greater than 8.0 μg/mL = D)
[18]
  MIC AECO086: D (MIC's of greater than 8.0 μg/mL = D)

## N[C@H]1C[C@H]2CC=Cc3c(c(F)cc4c(=O)c(C(=O)O)cn(C5CC5)c34)N2C1.O=C(O)C(F)(F)F [7B/18, (7aR,9S)-9-Amino-4-cyclopropyl-12-fluoro-1-oxo-4,7,7a,8,9,10-hexahydro-1H-pyrrolo[1′,2′:1,7]azepino[2,3h]-quinoline-2-carboxylic acid trifluoroacetate]
[1]; Table 2
  MIC AABA 1065: A (MIC's of 1.0 μg/mL or less = A)
[1]; Table 3
  MIC AABA 1065: A (MIC's of less than 1.0 = A)
[2]; Table 2
  MIC ASPN 1027: B (MIC's of greater than 1.0 μg/mL to 8.0 μg/mL = B)
[2]; Table 3
  MIC ASPN 1027: C (MIC's of 2.0 μg/mL to 8.0 μg/mL = C)
[3]
  MIC ASAU002: A (MIC's of less than 1.0 = A)
[4]
  MIC APAE002: A (MIC's of less than 1.0 = A)
[5]
  MIC ASPN1018: B (MIC's of 1.0 μg/mL to 2.0 μg/mL = B)
[6]; Table 2
  MIC APAE 001: A (MIC's of 1.0 μg/mL or less = A)
[6]; Table 3
  MIC APAE 001: A (MIC's of less than 1.0 = A)
[7]
  MIC AECO002: A (MIC's of less than 1.0 = A)
[8]; Table 2, 35° C., 20 hours
  MIC AECO 001: A (MIC's of 1.0 μg/mL or less = A)
[8]; Table 3
  MIC AECO 001: A (MIC's of less than 1.0 = A)
[9]
  MIC ASPN002: A (MIC's of less than 1.0 = A)
[10]; Table 2
  MIC AECO 066: B (MIC's of greater than 1.0 μg/mL to 8.0 μg/mL = B)
[10]; Table 3
  MIC AECO 066: C (MIC's of 2.0 μg/mL to 8.0 μg/mL = C)
[11]; Table 2
  MIC ASPN 001: A (MIC's of 1.0 μg/mL or less = A)
[11]; Table 3
  MIC ASPN 001: A (MIC's of less than 1.0 = A)
[12]; Table 2
  MIC ASAU 001: A (MIC's of 1.0 μg/mL or less = A)
[12]; Table 3
  MIC ASAU 001: A (MIC's of less than 1.0 = A)
[13]
  MIC AABA 1009: C (MIC's of greater than 8.0 μg/mL = C)
[14]
  MIC ASAU1033: D (MIC's of greater than 8.0 μg/mL = D)
[15]
  MIC AABA1020: C (MIC's of 2.0 μg/mL to 8.0 μg/mL = C)
[16]; Table 2
  MIC ASAU 1031: B (MIC's of greater than 1.0 μg/mL to 8.0 μg/mL = B)
[16]; Table 3
  MIC ASAU 1031: C (MIC's of 2.0 μg/mL to 8.0 μg/mL = C)
[17]; Table 2
  MIC APAE 054: C (MIC's of greater than 8.0 μg/mL = C)
[17]; Table 3
  MIC APAE 054: D (MIC's of greater than 8.0 μg/mL = D)
[18]
  MIC AECO086: C (MIC's of 2.0 μg/mL to 8.0 μg/mL = C)

From patent publication US20120058989A1, “ANTIBACTERIAL FLUOROQUINOLONE ANALOGS” (Achaogen, Inc., priority 2008, published 2012)
